The target of one data set is T1, human MCH-1R (Homo sapiens, UniProt Q99705).
T1 construct: expressed in transfected cells; host or cells: CHO-K1 (American Type Culture Collection), plasmid vector pEF/myc/cyto (Invitrogen)
Nature of the data set: MCH binding inhibition test. The following applies: membranes of CHO-K1 cells expressing human MCH-1R, 50 pM [125I]MCH, 25° C., an hour; read-out: IC50 (50% inhibition concentration to specific [125I]MCH binding). As for the experimental part:
The obtained expression vector was transfected to a host cell CHO-K1 (American Type Culture Collection) using Lipofectamine Plus Reagent (Life Technology Inc.) to provide MCH-1R expression cells.
After washing the glass filter with 50 mM Tris buffer (pH7.4) comprising 10 mM magnesium chloride, 2 mM ethylenediamine tetraacetate and 0.04% Tween-20, radiative activity on the glass filter was measured. […] MCH binding was determined.

Data set [1] can be described thus: Brain/cerebrospinal fluid migration test. It counts as in vivo. The following applies: SD male rats, after 2 hours of oral administration (10 mg/kg); for concentration at 2 h: rat. The text has this: A test compound was orally or intravenously administered to SD male rats (7 to 10 weeks-age, 200 to 400 g). Under anesthesia with ether for a predetermined period of time, from each of the rats whole blood was collected from its abdominal aorta using a heparin-processed syringe. Thereafter the brain skin was cut open and a 30 G needle for dental use was pierced between the cervical vertebrae and inserted into the subarachnoid cavity. Through the tube connected with the dental 30 G needle, 50-100 μL of the cerebrospinal fluid was collected into a 1-mL syringe, and then the brain was taken out. Each blood sample was centrifuged (4° C., 6,000 rpm,10 minutes) and the resulting plasma was stirred with three-fold the amount thereof of ethanol (including an internal standard substance). The brain sample was added with 2 mL of water and homogenized, a part of which was taken and stirred with three-fold the amount thereof of ethanol (including an internal standard substance). The cerebrospinal fluid was stirred with three-fold the amount thereof of ethanol (including an internal standard substance). Those samples were allowed to stand for 20 minutes at −20° C., and then centrifuged (4° C., 12,000 g, 10 minutes). The supernatant was analyzed through LC/MS/MS, and the concentration levels of the test compound in the plasma, in the brain and in the cerebrospinal fluid were quantified according to a relative calibration curve method.

A short description of data set [2]: Internal kinetics test (plasma concentration after oral or intravenous administration). The class given is in vivo. The following applies: SD male rats fasted overnight. As for the experimental part: A test compound was orally or intravenously administered to SD male rats (7 to 10 weeks-age, 200 to 400 g) which had fasted overnight, and within a predetermined period of time, about 100 μL of the blood per rat was collected via the tail vein, using a heparinized capillary. The blood was centrifuged (4° C., 6,000 rpm, 10 minutes) to provide plasma. To the plasma tree-fold the amount thereof of ethanol (including an internal standard substance) was added and stored, followed by standing at −20° C. for 20 minutes and then centrifuge (4° C., 10,000 rpm, 10 minutes). The supernatant was analyzed through LC/MS/MS, and the plasma concentration of the test compound was quantified according to a relative calibration curve method.

Where two headings read alike, the source gives them in different places.

T1 sequence (Q99705 whole entry): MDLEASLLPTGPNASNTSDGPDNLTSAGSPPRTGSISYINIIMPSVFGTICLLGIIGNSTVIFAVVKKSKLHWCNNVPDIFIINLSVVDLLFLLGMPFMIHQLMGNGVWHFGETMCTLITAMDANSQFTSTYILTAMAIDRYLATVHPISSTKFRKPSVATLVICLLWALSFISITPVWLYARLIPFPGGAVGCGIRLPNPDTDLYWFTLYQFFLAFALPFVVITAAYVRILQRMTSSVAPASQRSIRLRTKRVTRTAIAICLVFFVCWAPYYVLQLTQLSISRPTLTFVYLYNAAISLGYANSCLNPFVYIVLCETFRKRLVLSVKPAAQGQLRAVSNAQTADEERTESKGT

As to `CN(C)CCOc1ccc(-n2ccc(OCc3ccccc3)cc2=O)cc1` [Example 1, 4-Benzyloxy-1-{4-[2-(dimethylamino)ethoxy]phenyl}-1H-pyridin-2-one], the IC50 on human MCH-1R stood at 9.5 nM. The compound also registered a brain concentration in data set [1] of 2.33 nmol/g. Also, the concentration at 2 h in data set [1] (cerebrospinal fluid, read-out: cerebrospinal fluid concentration) is 46 nM; in data set [1] (plasma, read-out: plasma concentration) it was 250 nM.

On to `O=c1cc(OCc2ccc(F)cc2)ccn1-c1ccc(OCCN2CCCC2)cc1` [Example 29, 4-(4-Fluorobenzyloxy)-1-{4-[2-(1-pyrrolidinyl)ethoxy]phenyl}-1H-pyridin-2-one], for which the IC50 on human MCH-1R is 5.6 nM. For the same compound, the “half-value period in blood” value in data set [2] was 3.9 h. This compound had a bioavailability in data set [2] (rat, plasma, oral) of 79%.

Take `CCN(CC)CCOc1ccc(-n2ccc(OCc3ccc(Cl)cn3)cc2=O)cc1` [Example 101]: the melting point lay within 112 to 115 °C. Moreover, on human MCH-1R, the IC50 is 5.4 nM.

Regarding `CC(C)N(C)CCOc1ccc(-n2ccc(OCc3ccc(Cl)cn3)cc2=O)cc1` [Example 115, 4-[(5-Chloro-2-pyridinyl)methoxy]-1-(4-{2-[isopropyl(methyl)amino]ethoxy}-phenyl)-1H-pyridin-2-one], the melting point was in the range of 137 to 138 °C. For the same compound, the IC50 at human MCH-1R stood at 5.5 nM.

One may read the bioavailability as dose-corrected exposure relative to a reference, in per cent. Low readings indicate poor availability, high ones good availability. What is called melting point is the temperature of the solid-liquid transition.

(Values after patent publication US7732456B2, “Pyridone derivative” (Banyu Pharmaceutical Co., Ltd., priority 2004, dated 2010).)
